Measured values published in ChEMBL document CHEMBL1137067, “Alpha-1-C-alkyl-1-deoxynojirimycin derivatives as potent and selective inhibitors of intestinal isomaltase: remarkable effect of the alkyl chain length on glycosidase inhibitory profile” (Bioorg Med Chem Lett, 2004).

Columns and labels:
Beta-glucosidase A = Beta-glucosidase A (Caldicellulosiruptor saccharolyticus, UniProt P10482); assay: Inhibitory activity against beta-Glucosidase from Caldocellum saccharolyticum
[1] = biological target: T1, Sucrase-isomaltase, intestinal (Rattus norvegicus, UniProt P23739); assay: Inhibition of rat intestinal isomaltase using disaccharide
T1 sequence (P23739 1-1013 limits assumed): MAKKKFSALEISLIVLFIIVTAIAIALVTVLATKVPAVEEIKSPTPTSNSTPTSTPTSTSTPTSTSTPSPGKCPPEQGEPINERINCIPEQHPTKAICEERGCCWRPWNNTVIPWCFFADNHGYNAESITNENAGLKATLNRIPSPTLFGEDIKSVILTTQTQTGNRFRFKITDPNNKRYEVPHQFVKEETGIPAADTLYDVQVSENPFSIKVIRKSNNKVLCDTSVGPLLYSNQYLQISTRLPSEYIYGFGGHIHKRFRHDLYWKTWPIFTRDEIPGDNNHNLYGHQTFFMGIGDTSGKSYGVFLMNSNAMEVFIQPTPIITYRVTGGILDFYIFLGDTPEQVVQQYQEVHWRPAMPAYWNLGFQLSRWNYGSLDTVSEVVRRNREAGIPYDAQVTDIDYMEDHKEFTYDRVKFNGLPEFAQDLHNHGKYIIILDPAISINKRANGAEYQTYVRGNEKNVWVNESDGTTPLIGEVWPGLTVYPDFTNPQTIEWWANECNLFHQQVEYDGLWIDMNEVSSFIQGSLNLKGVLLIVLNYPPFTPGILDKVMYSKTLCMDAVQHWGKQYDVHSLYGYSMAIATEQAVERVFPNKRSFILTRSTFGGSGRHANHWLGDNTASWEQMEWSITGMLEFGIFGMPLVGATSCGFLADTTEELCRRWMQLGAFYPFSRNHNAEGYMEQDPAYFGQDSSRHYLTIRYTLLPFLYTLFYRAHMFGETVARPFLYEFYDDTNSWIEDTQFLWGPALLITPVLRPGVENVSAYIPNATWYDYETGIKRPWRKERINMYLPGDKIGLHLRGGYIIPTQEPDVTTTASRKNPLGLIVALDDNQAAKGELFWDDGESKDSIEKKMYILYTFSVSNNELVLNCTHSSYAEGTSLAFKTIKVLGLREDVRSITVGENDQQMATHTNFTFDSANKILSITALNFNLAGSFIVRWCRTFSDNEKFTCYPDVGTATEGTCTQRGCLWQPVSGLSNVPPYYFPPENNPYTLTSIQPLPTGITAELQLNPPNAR
T1 sequence (P23739 1014-1841 limits assumed): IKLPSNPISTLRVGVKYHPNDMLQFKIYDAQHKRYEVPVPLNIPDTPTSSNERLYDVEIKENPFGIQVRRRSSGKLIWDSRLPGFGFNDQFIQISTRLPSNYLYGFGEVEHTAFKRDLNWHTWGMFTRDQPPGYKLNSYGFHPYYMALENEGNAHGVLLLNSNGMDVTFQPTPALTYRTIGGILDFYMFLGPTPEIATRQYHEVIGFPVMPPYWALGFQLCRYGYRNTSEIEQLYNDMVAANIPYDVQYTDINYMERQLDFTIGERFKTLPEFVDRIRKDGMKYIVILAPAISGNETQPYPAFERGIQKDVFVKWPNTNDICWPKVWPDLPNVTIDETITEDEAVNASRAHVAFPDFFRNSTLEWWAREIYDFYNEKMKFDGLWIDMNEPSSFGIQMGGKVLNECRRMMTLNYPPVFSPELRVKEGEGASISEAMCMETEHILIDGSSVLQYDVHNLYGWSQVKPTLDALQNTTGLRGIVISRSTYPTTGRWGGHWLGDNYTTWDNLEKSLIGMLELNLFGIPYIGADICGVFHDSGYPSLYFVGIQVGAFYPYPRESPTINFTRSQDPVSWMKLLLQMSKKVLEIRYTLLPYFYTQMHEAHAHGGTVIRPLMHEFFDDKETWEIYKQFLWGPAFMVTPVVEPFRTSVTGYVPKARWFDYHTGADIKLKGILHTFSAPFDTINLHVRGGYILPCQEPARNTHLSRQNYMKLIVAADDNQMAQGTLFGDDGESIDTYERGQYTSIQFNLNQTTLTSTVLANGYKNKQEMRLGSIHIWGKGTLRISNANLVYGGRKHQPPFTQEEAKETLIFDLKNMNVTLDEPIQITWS

Alpha-glucosidase = biological target: T2, Alpha-glucosidase (Oryza sativa Japonica Group, UniProt Q9LGC6); assay: Inhibitory activity against alpha-Glucosidase from rice
T2 sequence (Q9LGC6 whole entry): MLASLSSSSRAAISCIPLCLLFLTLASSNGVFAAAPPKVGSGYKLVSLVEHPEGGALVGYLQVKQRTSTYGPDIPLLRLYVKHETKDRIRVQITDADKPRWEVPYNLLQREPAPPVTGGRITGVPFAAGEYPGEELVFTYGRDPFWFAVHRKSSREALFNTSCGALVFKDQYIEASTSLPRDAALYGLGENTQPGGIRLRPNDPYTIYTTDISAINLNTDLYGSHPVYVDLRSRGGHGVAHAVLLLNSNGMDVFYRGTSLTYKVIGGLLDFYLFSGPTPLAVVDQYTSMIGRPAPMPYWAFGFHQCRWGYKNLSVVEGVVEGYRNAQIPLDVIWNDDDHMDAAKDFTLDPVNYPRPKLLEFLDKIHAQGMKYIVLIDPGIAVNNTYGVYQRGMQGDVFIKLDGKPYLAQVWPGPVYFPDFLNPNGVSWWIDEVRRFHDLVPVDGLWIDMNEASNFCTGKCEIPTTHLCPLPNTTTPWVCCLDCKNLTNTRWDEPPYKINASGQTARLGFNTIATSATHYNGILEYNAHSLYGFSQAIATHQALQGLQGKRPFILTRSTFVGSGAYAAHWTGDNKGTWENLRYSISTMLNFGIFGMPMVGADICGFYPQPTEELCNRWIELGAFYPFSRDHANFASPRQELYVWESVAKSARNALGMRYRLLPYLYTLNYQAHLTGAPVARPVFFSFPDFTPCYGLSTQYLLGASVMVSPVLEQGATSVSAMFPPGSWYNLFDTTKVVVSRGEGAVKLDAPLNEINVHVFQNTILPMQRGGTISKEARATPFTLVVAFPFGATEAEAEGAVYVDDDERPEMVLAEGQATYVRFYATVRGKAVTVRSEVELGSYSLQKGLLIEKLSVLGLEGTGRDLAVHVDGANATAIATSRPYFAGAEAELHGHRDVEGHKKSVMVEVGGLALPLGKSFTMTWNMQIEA

[2] = biological target: T1, Sucrase-isomaltase, intestinal; assay: Inhibition of rat intestinal sucrase using disaccharide
[3] = biological target: T1, Sucrase-isomaltase, intestinal; assay: Inhibition of rat intestinal maltase using disaccharide
[4] = Inhibitory activity against alpha-Glucosidase from Yeast; parameters: species or system Saccharomyces cerevisiae
Saccharomyces cerevisiae = assay: Inhibitory activity against alpha-Glucosidase from Yeast at 1000 uM
[5] = biological target: Beta-glucosidase A (Caldicellulosiruptor saccharolyticus) (UniProt P10482); assay: Inhibitory activity against beta-Glucosidase from Caldocellum saccharolyticum at 1000 uM
Sequence of Beta-glucosidase A (Caldicellulosiruptor saccharolyticus) (P10482 whole entry): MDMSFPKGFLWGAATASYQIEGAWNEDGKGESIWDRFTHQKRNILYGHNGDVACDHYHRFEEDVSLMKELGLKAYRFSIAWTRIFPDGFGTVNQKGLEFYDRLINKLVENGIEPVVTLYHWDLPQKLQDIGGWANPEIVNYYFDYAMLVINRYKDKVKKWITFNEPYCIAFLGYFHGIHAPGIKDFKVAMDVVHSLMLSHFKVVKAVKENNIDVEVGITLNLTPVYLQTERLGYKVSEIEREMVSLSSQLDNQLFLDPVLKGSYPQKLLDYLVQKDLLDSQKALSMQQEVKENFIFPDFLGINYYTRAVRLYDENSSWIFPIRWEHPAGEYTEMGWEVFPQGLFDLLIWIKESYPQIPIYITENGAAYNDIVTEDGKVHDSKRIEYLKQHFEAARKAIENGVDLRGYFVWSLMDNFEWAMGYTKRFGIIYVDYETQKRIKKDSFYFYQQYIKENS

Sequence of Beta-glucosidase A (P10482 whole entry): as above

Row | Structure (SMILES) | IC50 (Beta-glucosidase A) [µM] | IC50 [1] [nM] | IC50 (Alpha-glucosidase) [nM] | IC50 [2] [nM] | IC50 [3] [µM] | IC50 [4] [µM] | inhibition (Saccharomyces cerevisiae) [%] | inhibition [5] [%]
1 | CCCCCCCCCC1NC(CO)C(O)C(O)C1O (stereo not given) | 80 | 3.5 | 1500 | 2500 | 4 | 56 | – | –
2 | CCCCCCCCCN1CC(O)C(O)C(O)C1CO (stereo not given) | – | – | 80 | – | 1.3 | – | < 50 | –
3 | CCCCCCCCC1NC(CO)C(O)C(O)C1O (stereo not given) | 110 | 90 | 590 | 1500 | 1.9 | 25 | – | –
4 | CCCCCCN1CC(O)C(O)C(O)C1CO (stereo not given) | 450 | 450 | 700 | 450 | 3.7 | – | < 50 | –
5 | CCCC1NC(CO)C(O)C(O)C1O (stereo not given) | – | 530 | 15000 | 39000 | 43 | 630 | – | –
6 | CCCCN1C[C@H](O)[C@@H](O)[C@H](O)[C@H]1CO | – | – | 420 | – | – | – | < 50 | < 50
7 | CCCN1CC(O)C(O)C(O)C1CO (stereo not given) | 100 | 1400 | 2000 | 2000 | 7 | – | < 50 | –

Results, then the compound that gave them:

Row | IC50 (Beta-glucosidase A) [µM] | IC50 [1] [nM] | IC50 (Alpha-glucosidase) [nM] | IC50 [2] [nM] | IC50 [3] [µM] | IC50 [4] [µM] | inhibition (Saccharomyces cerevisiae) [%] | inhibition [5] [%] | Structure (SMILES)
8 | 160 | 280 | 80 | 660 | 1.5 | – | < 50 | – | CCCCCCCCN1CC(O)C(O)C(O)C1CO (stereo not given)
9 | – | – | – | – | – | 190 | – | – | OC[C@H]1NC[C@H](O)[C@@H](O)[C@@H]1O [DUVOGLUSTAT]
10 | – | 310 | 800 | 1200 | 3.5 | 52 | – | < 50 | CCCCCCC1NC(CO)C(O)C(O)C1O (stereo not given)
11 | – | 115000 | 61000 | 155000 | 210 | – | < 50 | < 50 | CCCC[C@@H]1N[C@@H](CO)[C@@H](O)[C@H](O)[C@@H]1O
12 | – | 150 | 11000 | 3600 | 12 | 465 | – | < 50 | CCCC[C@H]1N[C@@H](CO)[C@@H](O)[C@H](O)[C@@H]1O
